Measured values as given in patent WO2007026771A1, “点滴用注射剤” (Ono Pharmaceutical Co Ltd, priority 2005, dated 2007).
“Also recorded” adds a separate entry of the source.

Key:
[1] = Solubility of compound A in water at various pH values (5℃, 24 h, HPLC); type: physicochemical
[2] = pH of supernatant of aqueous suspension of compound A; type: physicochemical
[3] = target: poly(ADP-ribose) polymerase (PARP) [ポリ(ADP−リボース)ポリメラーゼ] (Homo sapiens, UniProt P09874); details: cited from earlier work
[4] = Toxicity of compound A

Chain of poly(ADP-ribose) polymerase (PARP) [ポリ(ADP−リボース)ポリメラーゼ] (P09874 whole entry): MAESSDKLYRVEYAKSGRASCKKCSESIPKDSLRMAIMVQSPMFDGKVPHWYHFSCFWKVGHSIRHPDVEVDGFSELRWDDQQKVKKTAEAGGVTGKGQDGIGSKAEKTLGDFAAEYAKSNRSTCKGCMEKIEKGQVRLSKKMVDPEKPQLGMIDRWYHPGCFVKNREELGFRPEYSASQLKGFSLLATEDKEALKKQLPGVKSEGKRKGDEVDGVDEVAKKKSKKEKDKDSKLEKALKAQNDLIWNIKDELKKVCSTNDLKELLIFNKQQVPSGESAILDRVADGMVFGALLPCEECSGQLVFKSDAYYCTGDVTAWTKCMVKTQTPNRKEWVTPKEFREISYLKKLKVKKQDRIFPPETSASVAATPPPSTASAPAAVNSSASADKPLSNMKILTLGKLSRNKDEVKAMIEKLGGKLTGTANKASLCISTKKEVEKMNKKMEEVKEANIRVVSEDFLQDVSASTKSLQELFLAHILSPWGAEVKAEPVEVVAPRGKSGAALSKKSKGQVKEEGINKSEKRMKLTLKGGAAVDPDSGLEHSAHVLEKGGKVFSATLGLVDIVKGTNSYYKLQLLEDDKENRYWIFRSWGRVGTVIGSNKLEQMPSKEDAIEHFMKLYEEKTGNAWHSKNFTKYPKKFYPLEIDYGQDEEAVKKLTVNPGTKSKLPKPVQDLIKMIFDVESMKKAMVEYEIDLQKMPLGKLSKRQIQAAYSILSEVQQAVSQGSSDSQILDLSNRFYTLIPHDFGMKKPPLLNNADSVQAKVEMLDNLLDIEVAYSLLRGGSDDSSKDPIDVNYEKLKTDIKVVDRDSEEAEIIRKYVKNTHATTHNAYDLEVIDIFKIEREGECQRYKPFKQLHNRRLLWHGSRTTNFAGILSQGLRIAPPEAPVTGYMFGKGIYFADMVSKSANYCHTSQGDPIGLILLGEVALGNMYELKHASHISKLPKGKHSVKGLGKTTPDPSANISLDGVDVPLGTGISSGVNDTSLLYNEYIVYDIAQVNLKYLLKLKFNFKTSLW

O=C(Cc1n[nH]c(=O)c2c1CCCC2)NCCCCN1CCOCC1 [化合物A, 4−(N−(4−(モルホリン−4−イル)ブチル)カルバモイルメチル)−5,6,7,8−テトラヒドロフタラジン−1(2H)−オン]
dissolution in water ([1]; near neutral (e.g. pH 6 or above)): 速やかに水に溶解せず
solubility in water ([1]; pH 8 or above): 低い
dissolution in water ([1]; pH about 5 or below): 速やかに水に溶解する
solubility in water ([1]; pH about 7 or below (adjusted)): 著しく上昇; also recorded: 著しく向上
solubility in water ([1]; water): 極めて低く
pH of supernatant of aqueous suspension [2]: ~9.4
PARP inhibitory activity [3]: 阻害活性を有する; also recorded: PARP阻害活性を有する
toxicity [4]: 非常に低い
